The test system of assay [1] is transient cerebral ischemia in mongolian gerbils. Kind of assay: Protective effect of cerebralischemia: survival ratio after bilateral common carotid occlusion and reperfusion in gerbils. It is filed as in vivo, mongolian gerbil. Conditions: Meriones unguiculatus, ip; for responders at 5 mg/kg: read-out: Survival ratio. The method, then:
Test Example 1 Protective effect of cerebralischemia
Male mongolian gerbils (Seiwa/8-10 wks) (n=8-10) were used. Bilateral common carotid arteries were occluded after the incision of the center of the neck under ether anesthesia. Global cerebral ischemia was induced by the occlusion of bilateral common carotid arteries (15 minutes), and after that these arteries were reperfused. Test sample was administered intraperiatonelly 30 minutes before occlusion and 90 minutes after reperfusion. In the control group, vehicle (distilled water, saline or 5% gum arabic) was administered in the same fashion. Survival ratio was estimated at 8 hr after reperfusion (Table 2).

Assay [2] has as its system brain edema in male wistar rats. Put plainly: Anti-brain edema effect (middle cerebral arterial occlusion and reperfusion model). The class given is in vivo, rat (wistar). Conditions: 10 mg/kg(ip) × 7, rat, 3rd day after reperfusion, * p < 0.05. An excerpt:
Test Example 2 Anti-brain edema effect (middle cerebral arterial occlusion and reperfusion model)
Male wistar rats (Jcl:9wks) were anesthetized with inhalation of halothane (2-bromo-2-chloro-1,1,1-trifluoroethane). After the incision of neck, bilateral common carotid arteries were […] an embolized needle (diameter 0.3 mm, length 26 mm nylon thread) was inserted into the left internal carotid artery through external carotid artery and, simultaneously, the bilateral common carotid arteries were occluded by the Sugita's aneurysm clips. The embolized needle and the clips were removed out 30 minutes after occlusion. Test sample was administered immediately and 5 hr after reperfusion on the operated day, twice a day on the 1st and 2nd day, and 1 hr before removing the brain on the 3rd day (total 7 times), intraperiatonelly. In the control group, vehicle (distilled water, saline or 5% gum arabic) was administered in the same fasion. Brain edema on the 3rd day after reperfusion was estimated from the content of water, potassium and sodium in cerebral cortex and striatum. Water content was calculated from the ratio of dried brain weight and wet brain weight [(1-dried weight/wet weight)×100%]. The contents of pottasium and sodium were measured using the solution extracted from dried brain tissue with 14% nitric acid by the method of the framephotometer (Table 3).

[3] abbreviates: 5 mg/kg, 30 min before occlusion and 90 min after reperfusion, estimated 8 hr after reperfusion, control 0.
[4] abbreviates: 30 min before occlusion and 90 min after reperfusion, estimated 8 hr after reperfusion, control 0.

Consider 22 compounds from patent US5527811A, “Isoquinolinyl compounds which are useful in treating cerebral vascular disorders” (Takeda Chemical Industries, Ltd., priority 1993, dated 1996).

Structures can show the parent of a compound that is named as a salt. Where two headings read alike, the source gives them in different places.

Consider `CN(C)c1cccc(NC(=O)NCc2c(-c3ccccc3)c3cc(Cl)ccc3c(=O)n2C)c1` [14 (HCl), N-[(6-Chloro-1,2-dihydro-2-methyl-1-oxo-4-phenylisoquinolin-3-yl)methyl]-N'-(3-N,N-dimethylaminophenyl)urea hydrochloride], for which, in assay [1] (setting [3]), the responders at 5 mg/kg is 63%.
In the case of `CN(C)Cc1cccc(NC(=O)NCc2c(-c3ccccc3)c3cc(Cl)ccc3c(=O)n2C)c1` [15 (HCl), N-[(6-Chloro-1,2-dihydro-2-methyl-1-oxo-4-phenylisoquinolin-3-yl)methyl]-N'-(3-N,N-dimethylaminomethylphenyl)urea hydrochloride], the responders at 0.3 mg/kg in assay [1] (setting [4]) was 80%. Besides, the responders at 5 mg/kg in assay [1] (setting [3]) is 88%. Further, the “H2O (water content of brain)” value in assay [2] (control 81.27 (Example 1), 80.94 (Example 15(HCl))) stood at 80.24 ± 0.23%. Besides, the “Na (sodium content of brain)” value in assay [2] (control 405 (Example 1), 371 (Example 15(HCl))) was found to be 325 ± 17 mEq/kg. Moreover, the “K (potassium content of brain)” value in assay [2] (control 430 (Example 1), 440 (Example 15(HCl))) was 466 ± 9 mEq/kg.
Consider `Cn1c(CNC(=O)Nc2cccc(C(=O)O)c2)c(-c2ccccc2)c2cc(Cl)ccc2c1=O` [17 (Na), N-(3-Carboxyphenyl)-N'-[(6-chloro-1,2-dihydro-2-methyl-1-oxo-4-phenylisoquinolin-3-yl)methyl]urea sodium salt], for which the responders at 5 mg/kg in assay [1] (8 h) came to 67%.
The same measure, in the same setting: next, `CC(C)Oc1cccc(N(CC(=O)O)C(=O)NCc2c(-c3ccccc3)c3cc(Cl)ccc3c(=O)n2C)c1` [22 (Ma), N-Carboxymethyl-N'-[(6-chloro-1,2-dihydro-2-methyl-1-oxo-4-phenylisoquinolin-3-yl)methyl]-N-(3isopropoxyphenyl)urea sodium salt]: 63%; `Cn1c(CNC(=O)Cc2cccc(C(=O)O)c2)c(-c2ccccc2)c2cc(Cl)ccc2c1=O` [28 (Na), N-(6-Chloro-1,2-dihydro-2-methyl-1-oxo-4-phenylisoquinolin-3-yl)methyl-α-(3-carboxyphenyl)acetamide sodium salt]: 75%.
For `CCN(CC)Cc1cccc(NC(=O)NCc2c(-c3ccccc3)c3cc(Cl)ccc3c(=O)n2C)c1` [39 (HCl), N-[(6-Chloro-1,2-dihydro-2-methyl-1-oxo-4-phenylisoquinolin-3-yl)methyl]-N'-[3-(diethylaminomethyl)phenyl]urea], the responders at 5 mg/kg in assay [1] (setting [3]) was 63%.
On the same count and under the same terms, next, `Cn1c(CNC(=O)Nc2cccc(CN3CCCC3)c2)c(-c2ccccc2)c2cc(Cl)ccc2c1=O` [40 (HCl), N-[(6-Chloro-1,2-dihydro-2-methyl-1-oxo-4-phenylisoquinolin-3-yl)methyl]-N'-[3-(1-pyrrolidinomethyl)phenyl]urea]: 75%.
As for `CCN(CC)CCc1cccc(NC(=O)NCc2c(-c3ccccc3)c3cc(Cl)ccc3c(=O)n2C)c1` [41 (HCl), N-[(6-Chloro-1,2-dihydro-2-methyl-1-oxo-4-phenylisoquinolin-3-yl)methyl]-N'-{3-[2-(diethylamino)ethyl]phenyl}urea], the responders at 0.3 mg/kg in assay [1] (setting [4]) is 75%. In addition, the responders at 5 mg/kg in assay [1] (setting [3]) was 88%.
Take `CN(C)Cc1ccc(NC(=O)NCc2c(-c3ccccc3)c3cc(Cl)ccc3c(=O)n2C)cc1` [43 (HCl), N-[(6-Chloro-1,2-dihydro-2-methyl-1-oxo-4-phenylisoquinolin-3-yl)methyl]-N'-[4-(dimethylaminomethyl)phenyl]urea]: the responders at 5 mg/kg in assay [1] (setting [3]) is 63%.
The same measure, in the same setting: the result for `CN(C)CCCc1cccc(NC(=O)NCc2c(-c3ccccc3)c3cc(Cl)ccc3c(=O)n2C)c1` [44 (HCl), N-[(6-Chloro-1,2-dihydro-2-methyl-1-oxo-4-phenylisoquinolin-3-yl)methyl]-N'-{3-[3-(dimethylamino)propyl]phenyl}urea] reads 63%.
Same read-out and setting: the result for `CN(C)CCOc1cccc(NC(=O)NCc2c(-c3ccccc3)c3cc(Cl)ccc3c(=O)n2C)c1` [45 (HCl), N-[(6-Chloro-1,2-dihydro-2-methyl-1-oxo-4-phenylisoquinolin-3-yl)methyl]-N'-{3-[2-(dimethylamino)ethoxy]phenyl}urea] reads 82%.
`Cn1c(CNC(=O)NCCCn2ccnc2)c(-c2ccccc2)c2cc(Cl)ccc2c1=O` [47 (HCl), N-[(6-Chloro-1,2-dihydro-2-methyl-1-oxo-4-phenylisoquinolin-3-yl)methyl]-N'-[3-(1-imidazolyl)propyl]urea]: in assay [1] (setting [3]), the responders at 5 mg/kg was 75%.
The same measure, in the same setting: next, `CNCc1cccc(NC(=O)NCc2c(-c3ccccc3)c3cc(Cl)ccc3c(=O)n2C)c1` [48 (HCl), N-[(6-Chloro-1,2-dihydro-2-methyl-1-oxo-4-phenylisoquinolin-3-yl)methyl]-N'-[3-(methylamino)methylphenyl]urea hydrochloride]: 88%.
Still for that read-out and setting: the result for `CCNCc1cccc(NC(=O)NCc2c(-c3ccccc3)c3cc(Cl)ccc3c(=O)n2C)c1` [49 (HCl), N-[(6-Chloro-1,2-dihydro-2-methyl-1-oxo-4-phenylisoquinolin-3-yl)methyl]-N'-[3-(ethylaminomethyl)phenyl]urea hydrochloride] reads 88%; that for `Cn1c(CNC(=O)Nc2ccc3c(c2)CCC3N)c(-c2ccccc2)c2cc(Cl)ccc2c1=O` (stereo not drawn) [50 (HCl), N-(1-Aminoindan-5-yl)-N'-[(6-chloro-1,2-dihydro-2-methyl-1-oxo-4-phenylisoquinolin-3-yl)methyl]urea hydrochloride], 75%.
Regarding `Cn1c(CNC(=O)Nc2cccc(CN)c2)c(-c2ccccc2)c2cc(Cl)ccc2c1=O` [51 (HCl), N-[3-(Aminomethyl)phenyl]-N'-[(6-chloro-1,2-dihydro-2-methyl-1-oxo-4-phenylisoquinolin-3-yl)methyl]urea hydrochloride], the responders at 5 mg/kg in assay [1] (setting [3]) is 100%.
Still for that read-out and setting: next, `CN(C)Cc1cccc(NC(=O)NCc2c(-c3ccc(F)cc3)c3ccccc3c(=O)n2C)c1` [53 (HCl), N-{[4-(4-Fluorophenyl)-1,2-dihydro-2-methyl-1-oxoisoquinolin-3-yl]methyl}-N'-[3-(dimethylaminomethyl)phenyl]urea hydrochloride]: 75%.
Same read-out and setting: next, `CC(C)Oc1cccc(NC(=O)NCc2c(-c3ccccc3)c3ccccc3c(=O)n2C)c1` [Example 16, N-[(1,2-Dihydro-2-methyl-1-oxo-4-phenylisoquinolin-3yl)methyl]-N'-(3-isopropoxyphenyl)urea]: 88%.
Still for that read-out and setting: the result for `CC(C)Oc1cccc(N(C)C(=O)N(C)Cc2c(-c3ccccc3)c3cc(Cl)ccc3c(=O)n2C)c1` [Example 24, N-[(6-Chloro-1,2-dihydro-2-methyl-1-oxo-4-phenylisoquinolin-3-yl)methyl]-N'-(3-isopropoxyphenyl)-N,N'-dimethylurea] reads 75%; that for `CC(C)Oc1cccc(CC(=O)NCc2c(-c3ccccc3)c3cc(Cl)ccc3c(=O)n2C)c1` [Example 27, N-(6-Chloro-1,2-dihydro-2-methyl-1-oxo-4-phenylisoquinolin-3-yl)methyl-α-(3-isopropoxyphenyl)acetamide], 88%.
Consider `CC(C)Oc1cccc(OC(=O)NCc2c(-c3ccccc3)c3cc(Cl)ccc3c(=O)n2C)c1` [Example 29, 3-Isopropoxyphenyl N-[(6-chloro-1,2-dihydro-2-methyl-1-oxo-4-phenylisoquinolin-3-yl)methyl]carbamate], for which the responders at 5 mg/kg in assay [1] (8 h) was 75%.
As to `CC(C)Oc1cccc(CC(=O)OCc2c(-c3ccccc3)c3cc(Cl)ccc3c(=O)n2C)c1` [Example 32, (6-Chloro-1,2-dihydro-2-methyl-1-oxo-4-phenylisoquinolin-3-yl)methyl α-(3-isopropoxyphenyl)acetate], the responders at 5 mg/kg in assay [1] (setting [3]) was 63%.
